6 compounds from patent US7183094B2, “Bacterial mycothiol S-conjugate amidase family” (The Regents of the University of California, priority 1999, dated 2007) can be followed below.

The target of experiment [1] is mycothiol S-conjugate amidase in partially purified M. smegmatis cell extract (Mycolicibacterium smegmatis, UniProt A0R2W9). The settings on record: for product yielded from 1.0 equivalent of MSmB (0.1 nmol): 4 determinations at >50% conversion.
Method: The experiment was repeated using a partially purified cell extract and samples of the incubation mixture were analyzed at intervals for the other potential product of MSmB cleavage, GlcN-Ins, as well as for MSmB and AcCySmB.
A preparation of the mycothiol S-conjugate amidase (30–50% saturated ammonium sulfate fraction chromatographed on Sephadex G-75) was used to study the stoichiometry of the reaction. Reaction was initiated by mixing a sample (9 μL, 7 μg total protein) of the preparation of the enzyme with 0.9 mL of 50 mM sodium phosphate, pH 7.5 containing 100 μM MSmB.
For determination of bimane derivatives of thiols, a sample (70 μL) of reaction mixture was removed, mixed with 4 μL 5 M methanesulfonic acid, and analyzed by HPLC without dilution.
For analysis of GlcN-Ins, a sample (2–8 μL) of the reaction mixture was mixed with enough 1M HEPES chloride pH 8 to bring the volume to 10 μl and then with 5 μL acetonitrile and 5 μL of 10 mM AccQ-Fluor reagent (6-aminoquinolyl-N-hydroxysuccinimidyl carbamate, Waters). The mixtures were incubated for 1 min at room temperature followed by 10 min at 60° C., diluted with 60 μL of water, and quantified by HPLC as previously described (S. J. Anderberg, et al. (1998) supra.).
Experiment [2] relates to M. smegmatis mc^2155 cells. Briefly: M. smegmatis culture treated with mBBr: fate of mycothiol-related compounds and growth. The class given is cell-based, Mycobacterium smegmatis. As for the experimental part:
Since mBBr is known to penetrate cells rapidly and to convert intracellular thiols to their bimane derivatives (Newton, et al. (1995) supra.), the fate of mycothiol in M. smegmatis cells treated with mBBr was examined to ascertain whether the reaction shown in FIG. 1C occurs in vivo. A logarithmic phase culture of M. smegmatis was cooled on ice to ˜3° C. to reduce enzymatic reactions prior to reaction with 0.5 mM mBBr. Excess reagent was reacted with 2-mercaptoethanol and the cells were pelleted, washed, and resuspended in a small amount of ice cold medium. The cells were diluted with prewarmed medium and replaced in the shaking incubator at 37° C. (time, t=0). Samples were removed and analyzed for intracellular and extracellular mycothiol related compounds over a 4 h interval (FIG. 3).
A logarithmic phase culture of M. smegmatis was cooled on ice to ˜3° C. to reduce enzymatic reactions prior to reaction with 0.5 mM mBBr. Excess reagent was reacted with 2-mercaptoethanol and the cells were pelleted, washed, and resuspended in a small amount of ice cold medium. The cells were diluted with prewarmed medium and replaced in the shaking incubator at 37° C. (time, t=0). Samples were removed and analyzed for intracellular and extracellular mycothiol related compounds over a 4 h interval (FIG. 3).
At t=0, […] per 100 mL (3.5 μmol per g RDW) of AcCySmB was present in the cells and […] per 100 mL was found in the medium. Within 5 min the cellular AcCySmB level had fallen to […] per 100 mL and the medium level increased to 220 nmol per 100 mL. Subsequent analyses found essentially all of the AcCySmB in the medium at a level of 225–230 nmol per 100 mL, accounting for 80–90% of the original cellular mycothiol content. No MSmB appears to be exported from cells as […] (<0.5%) was detected in the medium or the cell washes. A logarithmic phase culture (1 L) of M. smegmatis mc^2155 (OD600=1.2) in 7H9 Middlebrook medium was cooled on ice to 3° C. The iced culture was incubated with mBBr (0.5 mM from a 180 mM stock solution in acetonitrile) for 20 min; excess 2-mercaptoethanol (1.0 mM) was added, and the incubation continued on ice for an additional 10 min. The cells were pelleted by centrifugation and washed twice with 200 mL of sterile, ice-cold 7H9 Middlebrook medium to remove excess bimane derivative of 2-mercaptoethanol. The cells were resuspended in 50 mL of sterile ice cold medium and the experiment was initiated (t=0) by dilution into 950 mL of prewarmed (37° C.) 7H9 Middlebrook medium. The cell suspension was shaken in an incubator (225 rpm, 37° C.) and a “t=0” sample (100 mL) was removed from the culture within one min. […]

Experiment [3] has as its target T1, purified M. smegmatis mycothiol S-conjugate amidase (Mycolicibacterium smegmatis, UniProt A0R2W9). Put plainly: Substrate specificity of purified mycothiol S-conjugate amidase (GlcN-Ins production). The class given is biochemical, Mycobacterium smegmatis. Particulars: for Activity: GlcN-Ins production from 0.1 mM substrate by 0.022 μg purified amidase at 30 C; for Relative Activity (%): relative to MSmB taken as 100%, 0.1 mM substrate. As for the experimental part:
The specificity of the amidase for substrate was assessed by measuring the production of GlcN-Ins in most cases. A sample (5 μL) of 1 mM substrate was mixed with 40 μL of 3 mM 2-mercaptoethanol, 25 mM HEPES chloride, pH 7.5. The reaction was initiated with 5 μL of purified amidase (50-fold diluted stock, 4.4 μg ml^−1). Triplicate samples were quenched at 0, 10, and 30 min by mixing each sample with 50 μL of acetonitrile containing 5 mM NEM and incubating at 60 C for 10 min. After cooling on ice, the samples were clarified by centrifugation for 15 min at 14000 g. […]

For experiment [4], the target named is M. smegmatis mycothiol S-conjugate amidase (Mycolicibacterium smegmatis, UniProt A0R2W9). Briefly: Inhibition of amidase cleavage of MSmB. The settings on record: 100 μM MSmB as substrate, n=2. The class given is biochemical, Mycobacterium smegmatis. As for the experimental part:
Tests were also conducted to determine whether mycothiol inhibits the cleavage of 100 μM MSmB by invention S-conjugate amidase. The amidase activity was decreased by 30±3, 48±3, and 89±3% (n=2) at 1, 3, and 10 mM mycothiol, respectively.
Preparation of Mycothiol S-conjugates. Mycothiol S-conjugates were prepared by reaction of excess electrophile with mycothiol followed by removal or reaction of excess electrophile. Stock solutions (100 mM) of electrophile were prepared in acetonitrile (NEM, iodoacetamide; Sigma) or in dimethylsulfoxide [7-diethylamino-3-(4′-maleimidylphenyl)-4-methylcoumarin (CPM, Molecular Probes), 3-(N-maleimidopropionyl)biocytin (MPB, Sigma)]. Reaction with these electrophiles at 2 mM in 25 mM *HEPES chloride pH 7.5 was initiated by addition of mycothiol to 1 mM from a 32 mM stock solution in H2O (pH˜3) and was allowed to proceed 15 min in the dark. Excess reagent was removed by extracting 3 times with an equal volume of H2O-saturated dichloromethane. A cerulenin (Sigma) stock solution (100 mM in acetonitrile) was diluted 5-fold in 25 mM HEPES chloride pH 7.5, reacted 15 min with 1 mM mycothiol, and extracted 5 times with H2O-saturated dichloromethane. Prior to extraction a 1 μL aliquot was withdrawn for reaction with mBBr and analysis of residual mycothiol by HPLC. […] Stock solutions (50 mM) of p-sulfobenzoyloxybromobimane (sBBr) and monobromotrimethylammoniobimane (qBBr) were prepared in 50% aqueous dimethylsulfoxide and diluted to 2 mM for reaction with 1 mM mycothiol in 25 mM HEPES chloride pH 7.5 for 15 min. Since these charged electrophiles cannot be extracted with dichloromethane, reaction was terminated with excess (1.1 mM) 2-mercaptoethanol.

For experiment [5], the target named is M. tuberculosis mycothiol S-conjugate amidase (Rv1082) (Mycobacterium tuberculosis, UniProt P9WJN1). Put plainly: Amidase activity of recombinant Rv1082 protein expressed in E. coli. The format is biochemical, Mycobacterium tuberculosis H37Rv. The settings on record: for amidase activity: 0.1 mM (100 μM) substrate, extracts of IPTG-induced cells. How it is done:
Purification and renaturation of mycothiol S-conjugate amidase from inclusion bodies. The approach taken involved solublization of the inclusion bodies in a highly concentrated urea and DTT solution followed by […] Cells were cultured in Luria Bertani broth containing 100 μg/mL ampicillin at 37° C. to OD600=0.8 when isopropyl-β-D-thiogalactopyranoside added to 0.4 mM and the culture was shaken overnight at 25° C. Cells were pelleted by centrifugation for 10 min at 5000 g and 4° C., sonicated in 5 volumes of assay buffer on ice, and centrifuged for 5 min at 14000 g at room temperature. About 85% of the amidase activity, using MSmB as substrate, was associated with the pellet fraction which was resuspended and incubated with periodic vortexing for 1 h at 37° C. in 8 M urea containing 20 mM DTT. The suspension was centrifuged for 3 min at 14000 g and the supernatant dialyzed against 100 volumes of 25 mM HEPES chloride pH 7.5 containing 1 mM glutathione disulfide and 2 mM glutathione for 15 h, and then against 100 volumes of 25 mM HEPES chloride pH 7.5 containing 3 mM 2-mercaptoethanol for 4 h. After centrifugation, the supernatant contained soluble amidase activity and was assayed with 0.1 mM mycothiol and 0.1 mM MSmB as described above.
Alkylation of MSH with mBBr produces the fluorescent S-conjugate, MSmB, which can be quantitated by HPLC with fluorescence detection (Newton et al. 1995; Newton et al. 1996). E coli has no mycothiol metabolism and is not expected to contain mycothiol conjugate amidase endogenous proteins that would give background to these assays.
Functional and Comparative analysis of mycothiol S-conjugate amidase. […] When these extracts were assayed with 0.1 mM mycothiol as substrate, <0.002 nmol/min/mg amidase activity was observed. […] (Table 2).

The target in experiment [6] is T1, purified M. smegmatis mycothiol S-conjugate amidase. As for the experimental part:
In vitro Enzymatic assays. […] Separation of the various modified thiols was performed by high-pressure liquid chromatography (HPLC). A sample (2–10 μL) of extract was mixed with 40 μL of 30 μM MSmB in 3 mM 2-mercaptoethanol, 25 mM N-2-hydroxyethylpiperazine-N′-2-ethanesulfonic acid (HEPES) chloride pH 7.5 and reacted […] at 30° C. before quenching the reaction with 50 μL of 40 mM methanesulfonic acid on ice. The mixture was centrifuged for 3 min at 14,000×g in a microcentrifuge at room temperature and the supernatant analyzed by HPLC without dilution. A shortened version (45 min) of HPLC method 1 of Fahey and Newton (R. C. Fahey, et al. (1987) Methods Enzymol. 143:85–96) was used for separation of MSmB and AcCySmB.

Setting [7] is: 0.1 mM substrate, resolubilized crude protein extract.

Bounds are passed on as bounds.

Chain of M. smegmatis mycothiol S-conjugate amidase (A0R2W9 whole entry): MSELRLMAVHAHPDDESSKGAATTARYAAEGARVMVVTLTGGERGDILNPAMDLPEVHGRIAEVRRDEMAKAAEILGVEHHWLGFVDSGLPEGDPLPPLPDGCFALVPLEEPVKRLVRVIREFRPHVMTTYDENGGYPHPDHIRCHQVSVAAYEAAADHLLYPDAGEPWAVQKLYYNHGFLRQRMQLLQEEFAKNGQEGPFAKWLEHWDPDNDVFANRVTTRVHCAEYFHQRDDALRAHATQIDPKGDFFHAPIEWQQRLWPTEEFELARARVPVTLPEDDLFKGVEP
Chain of mycothiol S-conjugate amidase in partially purified M. smegmatis cell extract (A0R2W9 whole entry): as above
T1 sequence (A0R2W9 whole entry): as above
Chain of M. tuberculosis mycothiol S-conjugate amidase (Rv1082) (P9WJN1 whole entry, looked up): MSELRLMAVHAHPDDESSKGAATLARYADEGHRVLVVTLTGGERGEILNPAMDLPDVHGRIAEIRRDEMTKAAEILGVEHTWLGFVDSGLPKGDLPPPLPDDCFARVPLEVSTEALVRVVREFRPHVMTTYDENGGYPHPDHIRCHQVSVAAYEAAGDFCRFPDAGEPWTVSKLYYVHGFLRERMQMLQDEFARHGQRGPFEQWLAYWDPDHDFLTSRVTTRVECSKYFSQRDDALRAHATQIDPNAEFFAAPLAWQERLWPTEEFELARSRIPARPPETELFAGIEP

Consider `CC(=O)N[C@@H](CSCc1c(C)c(=O)n2c(=O)c(C)c(C)n12)C(=O)O` [AcCySmB], for which the “product yielded from 1.0 equivalent of MSmB (0.1 nmol)” value in experiment [1] is reported as 1.00±0.02 equivalent.

Compound `Cc1c(C)n2c(CBr)c(C)c(=O)n2c1=O` [mBBr, monobromobimane] displayed an A600 in experiment [2] (8.5 h at 37 C after mBBr treatment) of 1.6. Further, the “final A600” value in experiment [2] (30 h at 37 C after mBBr treatment) is on record as about 2.6. For the same compound, the “initial decrease of A600 value” in experiment [2] (during the 4 h incubation after 0.5 mM mBBr treatment) is about 15%. In addition, the A600 value recovered in experiment [2] (within the 4 h incubation, equals initial value) is recorded as 1.2.

For `CC(=O)N[C@@H](CS)C(=O)N[C@H]1[C@@H](OC2[C@H](O)[C@H](O)C(O)[C@H](O)[C@H]2O)O[C@H](CO)[C@@H](O)[C@@H]1O` (stereo partly drawn) [Mycothiol, 1-D-myo-inosityl-2-(N-acetylcysteinyl)amido-2-deoxy-α-D-glucopyranoside], the “rate as % of the rate with 0.1 mM MSmB” value in experiment [3] (2 mM mycothiol) was 0.3%. The “rate of GlcN-Ins formation” value in experiment [3] (2 mM mycothiol, conditions otherwise as for Table 2) is 14 ± 1 nmol/min/mg. This compound also had an Activity in experiment [3] of 4 ± 1 nmol/min/mg. Moreover, the “Relative Activity (%)” value in experiment [3] was found to be 0.1%. Further, the entries for the “decrease of amidase activity” value in experiment [4] (1 mM mycothiol), in experiment [4] (3 mM mycothiol) and in experiment [4] (10 mM mycothiol) were 30±3%, 48±3% and 89±3%, respectively. In addition, in experiment [5], the amidase activity was under 0.002 nmol/min/mg. Further, in experiment [5] (setting [7]), the GlcN-Ins produced is listed as under 0.0023 nmoles/min/mg protein.

With `N[C@H]1[C@@H](OC2[C@H](O)[C@H](O)C(O)[C@H](O)[C@H]2O)O[C@H](CO)[C@@H](O)[C@@H]1O` (stereo partly drawn) [GlcN-Ins, 1-D-myo-inosityl-2-amino-2-deoxy-α-D-glucopyranoside], the “product yielded from 1.0 equivalent of MSmB (0.1 nmol)” value in experiment [1] is reported as 0.80±0.08 equivalent.

As to `CC(=O)N[C@@H](CSSC[C@H](NC(C)=O)C(=O)N[C@H]1[C@@H](OC2[C@H](O)[C@H](O)C(O)[C@H](O)[C@H]2O)O[C@H](CO)[C@@H](O)[C@@H]1O)C(=O)N[C@H]1[C@@H](OC2[C@H](O)[C@H](O)C(O)[C@H](O)[C@H]2O)O[C@H](CO)[C@@H](O)[C@@H]1O` (stereo partly shown) [Mycothiol disulfide], in experiment [3], the Activity was 25 ± 1 nmol/min/mg and the “Relative Activity (%)” value was 0.6%.

As to `CC(=O)N[C@@H](CSCc1c(C)c(=O)n2c(=O)c(C)c(C)n12)C(=O)N[C@H]1[C@@H](OC2[C@H](O)[C@H](O)C(O)[C@H](O)[C@H]2O)O[C@H](CO)[C@@H](O)[C@@H]1O` (stereo partly shown) [MSmB], in experiment [3], the Activity worked out at 4480 ± 870 nmol/min/mg and the “Relative Activity (%)” value is “(100) %”. Besides, the “specific activity of pooled G-100 peak fractions” value in experiment [6] (30 μM MSmB as substrate) is ~3,000 nmol/min-mg protein. In experiment [6] (30 μM MSmB, purified amidase), this compound yielded an amidase reaction rate of about 3000 nmol/min/mg. Moreover, in experiment [6] (MSmB as substrate), the Michaelis constant (Km) (usually the concentration of substrate that gives half-maximal velocity) came to 95 ± 8 µM; the catalytic constant (kcat) (commonly the number of substrate molecules converted per active site and unit of time at saturation) was found to be 8 s⁻¹. Further, in experiment [5], the amidase activity is 4.1 nmol/min/mg. For the same compound, in experiment [5] (setting [7]), the AcCysmB produced stood at 5.4±0.3 nmoles/min/mg protein and the GlcN-Ins produced is 4.1±0.05 nmoles/min/mg protein. The “rate enhancement relative to mycothiol (free thiol)” value in experiment [5] (recombinant M. tuberculosis amidase) is listed as “more than 2000 fold”. Moreover, in experiment [1] (60 min at 23° C.), the “conversion of MSmB” value turned out to be 97%.
